Settings: Crystal, Calculated from knudsen effusion weight loss

c1ccc2c(c1)Nc1ccccc1O2 [phenoxazine]
Settings | vapor or sublimation pressure [kPa]
329.7 K | 2.81e-05
336.7 K | 5.94e-05
340.9 K | 0.000102
344.9 K | 0.000164
345.1 K | 0.000164
346.9 K | 0.000196
348.2 K | 0.00022
352.9 K | 0.000345
353.1 K | 0.000363
356.7 K | 0.000483
360.9 K | 0.000748
364.5 K | 0.00107

OC1c2ccccc2-c2ccccc21 [9H-fluoren-9-ol]
Settings | vapor or sublimation pressure [kPa]
326.1 K | 2.1e-05
327.5 K | 2.44e-05
329.8 K | 3.15e-05
331.3 K | 3.74e-05
334.9 K | 5.12e-05
340.9 K | 0.000101
342.6 K | 0.000115
343.6 K | 0.000123
344.7 K | 0.000144
346.1 K | 0.000159
347.4 K | 0.000186
351.2 K | 0.000276
355.1 K | 0.000402
358.7 K | 0.00056
361.9 K | 0.00074
366.1 K | 0.00103

O=C1c2ccccc2C(=O)c2ccccc21 [9,10(9H,10H)-anthracenedione]
Settings | vapor or sublimation pressure [kPa]
346 K | 4.49e-06
359.9 K | 2.09e-05
360.9 K | 2.2e-05
362.7 K | 2.52e-05
367.4 K | 4.1e-05
369.9 K | 5.42e-05
377.6 K | 0.000119
379.2 K | 0.000144
380.1 K | 0.000149
385.4 K | 0.000267
385.8 K | 0.000263
386.8 K | 0.000305
392.7 K | 0.000493
392.8 K | 0.000494
393.4 K | 0.000519
399.2 K | 0.000872
399.9 K | 0.000948

c1ccc2c(c1)[nH]c1cnccc12 [9H-pyrido[3,4-b]indole]
Settings | vapor or sublimation pressure [kPa]
352.8 K | 5.7e-06
363.8 K | 1.74e-05
367.9 K | 2.56e-05
368.1 K | 2.72e-05
370.3 K | 3.37e-05
371.4 K | 4.16e-05
371.5 K | 4.16e-05
374.1 K | 5.03e-05
374.4 K | 5.45e-05
378.2 K | 7.53e-05
381.8 K | 0.000103
382 K | 0.000107
382.2 K | 0.000108
385.4 K | 0.000141
385.9 K | 0.000155
389.2 K | 0.000218
389.4 K | 0.000229

ON=C1c2ccccc2-c2ccccc21 [9-oximinofluorene]
Settings | vapor or sublimation pressure [kPa]
374.5 K | 0.000175
376.6 K | 0.000198
378.5 K | 0.000231
382.6 K | 0.000302
383.2 K | 0.000317
386.2 K | 0.000385
387.9 K | 0.000428
389.9 K | 0.000474
393.8 K | 0.000613
395.2 K | 0.000671
398.6 K | 0.000816

c1ccc2c(c1)Oc1ccccc1S2 [phenoxathiin]
Settings | vapor or sublimation pressure [kPa]
304.2 K | 8.61e-05
308.7 K | 0.000143
311.4 K | 0.000209
311.5 K | 0.000207
311.9 K | 0.000217
318.2 K | 0.000453
323 K | 0.000771
324.5 K | 0.000927

O=C1c2ccccc2-c2ccccc21 [9(9H)-fluorenone]
Settings | vapor or sublimation pressure [kPa]
300.8 K | 1.21e-05
303.6 K | 1.69e-05
307.9 K | 2.79e-05
309.8 K | 3.65e-05
313 K | 5.1e-05
313.1 K | 5.09e-05
315.1 K | 6.16e-05
323 K | 0.000139
323.1 K | 0.000143
324.5 K | 0.000159
324.7 K | 0.000167
328.4 K | 0.000246
328.6 K | 0.000245
330.9 K | 0.000311
331.1 K | 0.000319
331.9 K | 0.000345
336.5 K | 0.000528
336.6 K | 0.00054
337.8 K | 0.000596
337.9 K | 0.000599
342.7 K | 0.000937
342.8 K | 0.000952

Reference: the NIST ThermoML archive (doi:10.1016/j.jct.2010.01.014)
